In patent US20100151452A1, “Methods and Systems for Searching for Regulators of the Fer Protein and for Monitoring the Effects of the Fer Protein” (priority 2006, published 2010):

System: CDK2
Assay: Western blot of CDK2 level
Assay type: cell-based, human
Conditions: PC3 cells, simultaneous exposure to fer-siRNA and cycloheximide 10 μg/ml 4 h
Experimental: For treatment with cycloheximide, PC3 cells transfected with siRNA for 72 h, were subjected to 10 μg/ml cycloheximide for additional 4 h, at the end of the transfection process.
Whole cell lysates (WCL) were prepared as described before (Salem et al., 2005). For Western blot analysis, 20-30 μg proteins from each sample were resolved in 7-12% SDS-PAGE. Electroblotted proteins were detected using specific anti-Fer antibodies (Priel-Halachmi et al., 2000), anti-CDK2 (sc-6248, Santa Cruz), anti-CDK1 (sc-54, Santa Cruz), anti-CDK4 (610148, BD Biosciences), anti-CDK6 (554086, BD Biosciences), anti-CDK7 (sc-856, Santa Cruz), anti-cyclin A (sc-751, Santa Cruz), anti-cyclin D1 (sc-6281, Santa Cruz), anti-cyclin E (sc-247, Santa Cruz), anti-cyclin H (sc-1662, Santa Cruz), anti-pRB (sc-102, Santa Cruz), anti-phosphosthreonine^821-pRB (pThr821) (44-582, Biosource), anti-phosphoserine^795-pRB (pSer795) (sc-7986-R, Santa Cruz), anti-phosphoserine^780-pRB (pSer780) (9307, Cell Signaling), anti-phosphoserine^807/811-pRB (pSer807/811) (9308, Cell Signaling), anti-PP1α (2582, Cell Signaling), anti-PP1 (sc-443, Santa Cruz), anti-phosphothreonine^320-PP1α (pThr320) (2581, Cell Signaling), anti-p21Cip1 (sc-6246, Santa Cruz), anti-p27Kip1 (sc-528, Santa Cruz), anti-HA (NMS-101R, Covance), anti-Myc (13-2500, Zymed), and anti-Actin antibody (A 4700, Sigma). […]

SMILES: C[C@@H]1C[C@@H]([C@H](O)CC2CC(=O)NC(=O)C2)C(=O)[C@@H](C)C1 [cycloheximide]
- effect on the fer-siRNA induced decrease of the level of CDK2: alleviated this effect
